Measurements: patent US12421489B2, “Biological control of plant pathogenic microorganisms” (priority 2016, dated 2025)

Assays:
Botrytis spp. = experiment: Assay 8: wound protection of ‘Hongyang’ kiwifruit, Botrytis spp.; type: in vivo; conditions: wounded ‘Hongyang’ kiwifruit, treatment 24 h before Botrytis spp., 6 days incubation
Protocol: (§1) The kiwifruit ‘Hongyang’-based screening assays (assays 8 and 9) were conducted in laboratories at the Plant and Food Research Ruakura Research Centre, Hamilton, New Zealand (PFR). PFR assays focused on wound application of YBCA5 treatment, a commercial biological control treatment and a fungicide were used as comparative controls.
(§2) The ‘Hongyang’ kiwifruit were sourced from the PFR Riwaka Research Orchard in Motueka on 12 Apr. 2017 for fruit based assays 8 and 9. Penicillium spp. Phomopsis spp., Alternaria spp., Colletotrichum spp., Cryptosporiopsis spp. and Botrytis spp. inoculation assays were carried out on ‘Hongyang’ kiwifruit that were picked at the harvest mature stage. […]
(§3) For assays 8 and 9, two sterile paper towels were placed beneath Plix cut-outs, moistened with 40 mL SDW and each fruit placed in disposable lunch boxes (Plix Extra Deep 45/45, containing five Plix fruit cut-outs to prevent fruit from moving), sealed, then placed into large (40 L) plastic bins which were closed to ensure high relative humidity for the first 24 h and incubated on the lab bench at 24° C. […] After 6 days, (Alternaria spp. Botrytis spp., Penicillium spp., Phomopsis spp., Colletotrichum spp.) and 7 days (Cryptosporiopsis spp.), the severity of fungal rot was assessed for each treatment by measuring the lesion length (mm) along the axis of the fruit. […]

Penicillium spp. = experiment: Assay 8: wound protection of ‘Hongyang’ kiwifruit, Penicillium spp.; type: in vivo; conditions: wounded ‘Hongyang’ kiwifruit, treatment 24 h before Penicillium, 6 days incubation
Protocol: as §1, §2, §3

For `CC(C)NC(=O)N1CC(=O)N(c2cc(Cl)cc(Cl)c2)C1=O` [iprodione], the “lesion size, comparison between treatments” value (Botrytis spp.) was “significantly smaller than the untreated control” and the “lesion size, comparison between treatments” value (Penicillium spp.) was “significantly smaller than the untreated control”.
